Entries after “also recorded” stand apart in the source; their conditions may differ. Where a name gives a salt, the structure may show the parent alone.
What was measured:
Type in all cases: physicochemical
[1] = Stability Test 1: storage under an open condition at 60° C. (powder X-ray diffraction, HPLC related substances, appearance); conditions: 2 months; for Increased Amount of related substance: HPLC area normalization; for Change of Crystal form: powder X-ray diffraction
Protocol: (§1) The Form I crystal of the salt (A-1), the Form I crystal of the salt (A-2), the crystal of hydrochloric acid of the compound (B), the crystal of sebacate salt of the compound (B) and the crystal of adipate salt were stored under an open condition at 60° C., and the physical stability and the chemical stability of each crystal form were examined. The powder X-ray diffractions of the samples at the start of the specimens and 2 months later were measured in the same manner as in Test Example 1, and the physical stability of the crystal forms and the amounts of the related substances were measured using the following HPLC measurement conditions, thereby observing the chemical stability. At the same time, changes in appearance were also observed.
(§2) • Detector: Ultraviolet and visible absorptiometer/wavelength: 225 nm • Column: L-column2 ODS, 3 μm, 4.6×150 mm (manufactured by Chemicals Evaluation and Research Institute, Japan) • Column temperature: constant temperature around 30° C. • Flow rate: 1.0 mL/min • Mobile phase A: a solution (pH 6.9) in which potassium dihydrogen phosphate and dipotassium hydrogen phosphate are mixed in water so as to be each 10 mmol/L • Mobile phase B: acetonitrile • Mobile phase ratios • 0 to 25 minutes: mobile phase A/mobile phase B=79/21 • 25 to 45 minutes: mobile phase A/mobile phase B=79/21 to 25/75 (Gradient) • 45 to 50 minutes: mobile phase A/mobile phase B=25/75 • Injection volume: 5 μL • Sample cooler: 4° C. • Dissolution solvent: A mixed solution prepared by adding 20 parts of acetonitrile to 80 parts of a 20 mmol/L potassium dihydrogen phosphate aqueous solution adjusted to pH 3. • Sample solution: A liquid obtained by dissolving the specimen in the dissolution solvent and adjusting to about 1.0 mg/mL as the compound (B).
(§3) Excluding the peaks derived from the blank, the peak areas of the respective peaks were measured by an automatic integration method, and the values thereof were determined by an area normalization method.

[2] = Stability Test 2: storage under an open condition at 40° C. and 75% relative humidity (powder X-ray diffraction, HPLC related substances, appearance); conditions: 2 months; for Increased Amount of related substance: HPLC area normalization; for Change of Crystal form: powder X-ray diffraction
Protocol: as §1, with “hydrochloride salt” for “hydrochloric acid”, “40° C. and 75% relative humidity,” for “60° C.,”
as §2, with “a 10” for “a 20”
as §3

[3] = Water adsorption and desorption test (IGA-Sorp); conditions: 25° C.
Protocol: The water adsorption and desorption behaviors of the Form I crystal of the salt (A-1), the crystal of hydrochloride salt of the compound (B) and the crystal of sebacate salt of the compound (B) were measured using IGA-Sorp (manufactured by HIDEN isochema) under the following conditions. The water adsorption and desorption isotherm of the Form I crystal of the salt (A-1) is shown in FIG. 11, and the water adsorption and desorption isotherm of hydrochloride salt of the compound (B) is shown in FIG. 12.
• Form I crystal of salt (A-1): 14.7 mg • Crystal of hydrochloride salt of compound (B): 10.4 mg • Crystal of sebacate salt of compound (B): 13.2 mg
Each specimen was placed in a water adsorption and desorption measurement device. The temperature and the humidity were set to 25° C./40% RH or 50% RH, and equilibration was conducted for 60 minutes or more to stabilize the mass.
The mass of each specimen subjected to mass equilibration was continuously measured while changing the relative humidity at every 5% RH in adsorption and desorption.
The mass % was expressed as a mass percentage of a mass change before and after adsorption (or desorption) based on a dry sample.

[4] = listed as Forn I crystal of the salt (A-2), Monosuccinate Salt

Row | chemical stability (in words) [1] | Increased Amount of related substance [1] | Change of Crystal form ([1]; Sesquisuccinate Monohydrate) | chemical stability (in words) [2] | Increased Amount of related substance [2] | Change of Crystal form ([2]; Sesquisuccinate Monohydrate) | Change of water amount at adsorption ([3]; 50-90% RH, based on a dry sample) | Change of water amount at desorption ([3]; 90-0% RH, based on a dry sample) | hygroscopicity (in words) ([3]; water adsorption and desorption) | Appearance ([1]; Monosuccinate Salt) | Appearance [1, 4] | Change of Crystal form ([1]; Monosuccinate Salt) | Change of Crystal form [1, 4] | Change of Crystal form ([2]; Monosuccinate Salt) | SMILES | Appearance ([1]; Sesquisuccinate Monohydrate) | Appearance ([2]; Sesquisuccinate Monohydrate) | Appearance ([2]; Monosuccinate Salt)
1 | chemically stable | No increase | No change in crystal form | chemically stable | +0.01% | No change in crystal form | 0.3 mass % | 0.8 mass % | does not exhibit hygroscopicity | – | – | – | – | – | CCCN(C(=O)NCCN(C)C)C(=O)[C@@H]1C[C@@H]2Cc3c(sc(N)c3C#N)C[C@H]2N(C)C1 [Form I crystal of the salt (A-1), 1-{[(4aR,6R,8aR)-2-Amino-3-cyano-8-methyl-4,4a,5,6,7,8,8a,9-octahydrothieno[3,2-g]quinolin-6-yl]carbonyl}-3-[2-(dimethylamino)ethyl]-1-propylurea Sesquisuccinate Monohydrate] | almost no change in appearance; also recorded: White (A slight coloration | no change in appearance; also recorded: No change in white | –
2 | chemically stable | −0.05% | – | chemically stable | No increase | – | – | – | – | almost no change in appearance | White (A slight coloration | No change in crystal form | No change | No change in crystal form | CCCN(C(=O)NCCN(C)C)C(=O)[C@@H]1C[C@@H]2Cc3c(sc(N)c3C#N)C[C@H]2N(C)C1.O=C(O)CCC(=O)O [Form I crystal of the salt (A-2), 1-{[(4aR,6R,8aR)-2-Amino-3-cyano-8-methyl-4,4a,5,6,7,8,8a,9-octahydrothieno[3,2-g]quinolin-6-yl]carbonyl}-3-[2-(dimethylamino)ethyl]-1-propylurea Monosuccinate Salt] | – | – | no change in appearance; also recorded: No change in white

From patent US20230286998A1, “SUCCINATE SALTS OF OCTAHYDROTHIENOQUINOLINE COMPOUND AND CRYSTALS THEREOF” (KISSEI PHARMACEUTICAL CO., LTD., priority 2020, published 2023)
